Measured values as given in article PMC10376999 (Biomedicines, 2023).
Where “and” joins values, the source holds several entries; their conditions need not be identical. Identical values can stand only once. Like-named read-outs stand apart in the source and are kept apart here. Blank lines part the entries; values can stand above or below the compound they belong to.

Columns and labels:
[1] = tested on: RPTEC/TERT1 artificial tubular barrier; conditions: human
Experimental: (§1) Experiments were performed using an immortalized human renal proximal tubular epithelial cell line (RPTEC/TERT1) [21], which was supplied by Evercyte GmbH (Vienna, Austria). […] To bring these cells into culture 0.6 × 10^5 cells were seeded onto 24-well plates Thincert Transwell inserts (0.33 cm^2, 0.4 µm pore size; Greiner Bio-one) and further cultured in ProxUp Basal Medium (Evercyte, Austria). The cells were cultured on Thincert inserts (Greiner Bio-one, Frickenhausen, Germany) for at least 8 days to ensure the formation of a confluent cell monolayer. The cell layer integrity was confirmed by measuring the trans-epithelial electrical resistance (TEER) with an epithelial volt-ohm-meter (EVOM, Millicel, Darmstadt, Germany). Transwell inserts were used for transport experiments when TEER values exceeded 150 Ω × cm^2.
(§2) The transport of R123 and HSA-647 across the tubular barrier was carried out under static and dynamic cultivation conditions. The static conditions were carried out by placing the Transwell^TM inserts on a well plate, with no pressure or flow applied.
(§3) Fluorescence intensity at the beginning and end of the experiments was measured using a microplate reader (Tecan Infinite Pro, Tecan Group, Switzerland), and a miniaturized fluorescence reader (Fluo Sens Integrated, Qiagen, Hilden, Germany) was used for online monitoring. […] Using the calibration curves, the fluorescent intensity (FU) results were converted to concentration (µM).
(§4) During the transport assays, the decrease in the fluorescence intensity in the artificial microfluidic channels mimicking the peritubular capillary structures (in the well, see Figure 2; compartment 7) was measured constantly. R123 (2 μM) and HSA-647 (0.6 µM) were added to the cell culture medium and to the microfluidic channel (Figure 2), and a Transwell insert populated with cells (compartment 4 in Figure 2).
(§5) The whole system was then placed on the Qiagen fluorescence meter in such a way that only the fluorescence signal of the cell culture medium in the channels (compartment 1 in Figure 2) was measured every 120 s for maximum 48 h. Cell-free Transwell^TM inserts were used as a control. Transport assay experiments for each condition were performed and measured in triplicates.

[2] = tested on: OAT1; parameters: method as in PMID 23140242, PMID 22470447; conditions: OAT1-mediated transport, Michaelis–Menten model; cited from earlier work
[3] = tested on: MDR1; conditions: cited from earlier work
[4] = target: MDR1 (Homo sapiens, UniProt P08183); experiment: Kinetic characterization (Hill fit) of MDR1-mediated R123 transport above the artificial tubular barrier
Sequence of MDR1 (Homo sapiens, UniProt P08183) (P08183 whole entry): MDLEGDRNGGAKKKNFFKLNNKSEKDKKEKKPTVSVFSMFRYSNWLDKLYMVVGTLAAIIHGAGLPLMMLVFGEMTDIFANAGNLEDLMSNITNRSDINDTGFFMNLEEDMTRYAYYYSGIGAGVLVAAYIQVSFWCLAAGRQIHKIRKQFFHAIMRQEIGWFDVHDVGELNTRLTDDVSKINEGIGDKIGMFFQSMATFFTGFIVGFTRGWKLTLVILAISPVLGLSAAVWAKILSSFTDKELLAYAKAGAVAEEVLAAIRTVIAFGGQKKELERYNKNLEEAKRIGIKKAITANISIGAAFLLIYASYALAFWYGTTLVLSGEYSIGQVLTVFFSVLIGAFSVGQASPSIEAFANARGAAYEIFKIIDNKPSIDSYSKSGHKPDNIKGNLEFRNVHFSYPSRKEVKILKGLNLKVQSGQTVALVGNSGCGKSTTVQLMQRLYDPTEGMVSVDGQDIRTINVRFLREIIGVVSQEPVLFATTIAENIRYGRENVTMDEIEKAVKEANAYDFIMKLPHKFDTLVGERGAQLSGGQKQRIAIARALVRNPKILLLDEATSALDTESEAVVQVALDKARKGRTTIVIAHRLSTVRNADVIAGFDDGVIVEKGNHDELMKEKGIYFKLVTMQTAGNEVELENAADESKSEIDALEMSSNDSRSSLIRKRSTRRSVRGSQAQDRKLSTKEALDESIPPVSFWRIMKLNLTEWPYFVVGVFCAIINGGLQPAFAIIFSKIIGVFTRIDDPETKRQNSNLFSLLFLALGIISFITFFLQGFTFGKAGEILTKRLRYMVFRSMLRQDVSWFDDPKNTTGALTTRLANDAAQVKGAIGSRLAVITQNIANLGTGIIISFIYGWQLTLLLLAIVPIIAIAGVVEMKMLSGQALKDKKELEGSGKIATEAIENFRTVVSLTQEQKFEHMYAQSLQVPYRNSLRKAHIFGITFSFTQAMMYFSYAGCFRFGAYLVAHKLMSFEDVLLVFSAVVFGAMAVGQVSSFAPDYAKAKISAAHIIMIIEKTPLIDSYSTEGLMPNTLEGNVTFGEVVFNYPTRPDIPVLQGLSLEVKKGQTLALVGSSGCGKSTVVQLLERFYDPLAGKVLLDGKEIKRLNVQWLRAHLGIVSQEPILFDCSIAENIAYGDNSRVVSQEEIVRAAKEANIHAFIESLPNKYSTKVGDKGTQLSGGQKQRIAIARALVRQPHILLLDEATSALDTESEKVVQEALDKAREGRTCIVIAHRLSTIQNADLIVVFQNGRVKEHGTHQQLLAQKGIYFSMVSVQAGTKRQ
Text: (3) V=Vmax[S]^n/Km^n+[S]^n
(§6) In this equation, V is the substrate transport velocity in static conditions, [S] is the substrate (R123) concentration, Vmax is the maximum velocity of R123 transport, Km is Michaelis–Menten constant, and n is the Hill slope or degree, which usually explains the cooperative behavior in substance transport. It should be noted that, in this definition, Km = [S] when V = 0.5 Vmax.
(§7) It is assumed that when the inhibitor is present, any R123 molecule that passed through the membrane passed by means of passive transport [29]. […] (R123 concentration) curve was plotted (Figure 8) using online monitoring results, providing the R123 concentration.

[5] = tested on: RPTEC/TERT1 artificial tubular barrier; experiment: Transport assay of R123 and HSA-647 across the artificial tubular barrier on Transwell inserts, static and in the microphysiological system (pressure, flow); conditions: for Concentration of R123 in the peritubular capillary after 48 h: start 2 µM
Experimental: as §1, §2, §3, §4, §5

[6] = tested on: COC(=O)c1ccccc1-c1c2ccc(=N)cc-2oc2cc(N)ccc12
Text: (3) V=Vmax[S]^n/Km^n+[S]^n
as §6, §7

[7] = tested on: MDR1; parameters: method as in PMID 28487651; conditions: tariquidar in interaction with MDR1; read-out: KI (inhibition constant); cited from earlier work
[8] = tested on: MDR1; experiment: Quantitative measurement of MDR1 expression by sandwich ELISA; type: cell-based, human; conditions: RPTECs, tariquidar 50 µg/mL, static and dynamic conditions
Experimental: To measure the amount of MDR1 expressed in different conditions, a sandwich enzyme-linked immunosorbent assay (ELISA) kit for MDR1 (antibodies-online, Aachen, Germany) was used. After each experiment, lysed cells were centrifuged at 5000× g for 5 min (at 4 °C); then, the supernatant was collected for ELISA [27]. For each experimental condition, three samples were prepared, with each sample measured in duplicates.
The amount of MDR1 expressed in the cell-based artificial proximal tubule was measured by the ELISA quantitative measurement.
To confirm, we performed the Student’s t-test; there is no significant difference in the mean values of MDR1 concentration in different conditions.

[9] = absence of inhibitor, static, from the literature

Passive transport of R123, JR123,F,PT, calculated from equation [1]: 0.026 pmol/min
Passive transport of R123, JR123,P,PT, calculated from equation [1]: 0.0102 pmol/min
Passive permeability P ([1]; 2 µM): 1.5e-08 L/min
Rdiffflow (effect of flow on total transport compared to static) ([1]; 2 µM): 0.0434 pmol/min
Rdiffpressure (effect of pressure on total transport compared to static) ([1]; 2 µM): 0.0009 pmol/min
Total transport rate of R123, JR123flow ([1]; 2 µM): 0.112 pmol/min
Total transport rate of R123, JR123pressure ([1]; 2 µM): 0.069 pmol/min
Total transport rate of R123, JR123static ([1]; 2 µM): 0.068 pmol/min
Sieving coefficient θ ([1]; 48 h, 2 µM): 0.22
Active transport rate of R123, JR123AT,flow ([4]; 0.13 µL/s flow, total minus passive transport rate): 0.048 pmol/min
Active transport rate of R123, JR123AT,pressure ([4]; 5 mbar pressure, total minus passive transport rate): 0.042 pmol/min
n (Hill slope) ([4]; absence of inhibitor, static, present study): 2
n (Hill slope) ([4]; presence of tariquidar, static, present study): 2
Active transport rate of R123, JR123AT,static ([4]; static, total minus passive transport rate): 0.038 pmol/min
Concentration of R123 in the peritubular capillary after 48 h ([5]; 0.13 µL/s flow, no tariquidar): 600 nM
Concentration of R123 in the peritubular capillary after 48 h ([5]; 5 mbar pressure, no tariquidar): 1100 nM
AVG R123 conc. In well, fluorescence endpoint after 48 hours ([5]; flow): 0.92 µM
AVG R123 conc. In well, fluorescence endpoint after 48 hours ([5]; flow inhibited): 0.25 µM
AVG R123 conc. In well, fluorescence endpoint after 48 hours ([5]; pressure): 0.68 µM
AVG R123 conc. In well, fluorescence endpoint after 48 hours ([5]; pressure inhibited): 0.24 µM
AVG R123 conc. In well, fluorescence endpoint after 48 hours ([5]; static inhibited): 0.22 µM
Concentration of R123 in the peritubular capillary after 48 h ([5]; static, no tariquidar): 1500 nM
Concentration of R123 in the peritubular capillary after 48 h ([5]; static, tariquidar present): 1700 nM
Compound: COC(=O)c1ccccc1-c1c2ccc(=N)cc-2oc2cc(N)ccc12 [R123, Rhodamine 123]
Km [2]: 0.3 ± 0.1 µM
Km ([3]; MDR1-mediated transport, Michaelis–Menten model): 17.5 ± 2.8 µM
Km [3, 9]: ~17.5 µM
Vmax [3, 9]: 0.0525 pmol/min and 0.0525 [22] pmol/min
Km ([3]; presence of inhibitor (non-competitive, Km unchanged), static, from the literature): ~17.5 µM
n (Hill slope) ([3]; presence of inhibitor, static, from the literature): 2 [22, 28]
V'max ([4]; presence of tariquidar, static, calculated from Vmax/(1+[I]/KI) with literature KI = 0.32 nM (ref 32)): 2.18 × 10^−7 pmol/min and 2.18 × 10^−7 (from Equation (3)) [32] pmol/min
V'max ([4]; presence of tariquidar, static, from curve fitting, present study): 1.25 × 10^−7 ± 3 × 10^−9 pmol/min and 1.25 × 10^−7 ± 3 × 10^−9 (from curve fitting) pmol/min

Compound: MDR1 (Homo sapiens)
Km [6]: 17.47 ± 8 µM

Compound: COc1cc2c(cc1OC)CN(CCc1ccc(NC(=O)c3cc(OC)c(OC)cc3NC(=O)c3cnc4ccccc4c3)cc1)CC2 [tariquidar]
Ki [7]: 320 pM
Effect on the level of MDR1 protein (ELISA) [8]: did not affect the level of MDR1 protein
